Assay results published in ChEMBL document CHEMBL5126517, “Structure-Activity Relationship in the Leucettine Family of Kinase Inhibitors” (J Med Chem, 2022).
pEC50, pIC50: −log10 of the molar value.

Target: Dual specificity tyrosine-phosphorylation-regulated kinase 1B (Homo sapiens, UniProt Q9Y463)
Details: not given

Sequence of Dual specificity tyrosine-phosphorylation-regulated kinase 1B (Q9Y463 whole entry): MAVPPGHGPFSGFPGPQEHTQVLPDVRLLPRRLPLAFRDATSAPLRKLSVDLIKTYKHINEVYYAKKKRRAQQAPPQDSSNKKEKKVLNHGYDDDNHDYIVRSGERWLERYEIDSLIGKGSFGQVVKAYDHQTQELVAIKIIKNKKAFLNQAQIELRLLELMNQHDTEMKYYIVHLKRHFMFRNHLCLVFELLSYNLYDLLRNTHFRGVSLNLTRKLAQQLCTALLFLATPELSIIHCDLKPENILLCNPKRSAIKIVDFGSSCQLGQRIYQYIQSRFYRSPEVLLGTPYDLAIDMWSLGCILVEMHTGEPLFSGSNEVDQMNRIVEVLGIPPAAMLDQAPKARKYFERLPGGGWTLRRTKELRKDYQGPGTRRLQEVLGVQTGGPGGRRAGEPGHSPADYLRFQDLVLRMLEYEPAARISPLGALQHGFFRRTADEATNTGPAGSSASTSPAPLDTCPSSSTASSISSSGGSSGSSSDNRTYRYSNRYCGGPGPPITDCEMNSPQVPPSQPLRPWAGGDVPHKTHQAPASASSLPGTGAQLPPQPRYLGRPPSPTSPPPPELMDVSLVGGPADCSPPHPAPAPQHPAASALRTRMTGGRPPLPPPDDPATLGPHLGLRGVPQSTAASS

Going from `NC1=N/C(=C\c2ccc3c(c2)OCO3)C(=O)N1` to `O=C1NC(Nc2ccc(O)cc2)=N/C1=C\c1ccc2c(c1)OCO2`, the pIC50 rises from 6.72 to 7.62 (0.90 log units).

`CCCNC1=N/C(=C\c2ccc3c(c2)OCO3)C(=O)N1CCC` and `CCCCCCc1ccc(NC2=N/C(=C\c3ccc(O)c(OC)c3)C(=O)N2)cc1` cannot be ordered by pIC50: less than 5.00 for the first, no more than 5.00 for the second.

Target: T1, Dual specificity tyrosine-phosphorylation-regulated kinase 1A (Homo sapiens, UniProt Q13627)
Test: Inhibition of DYRK1A in human SH-SY5Y overexpressing Tau4R cells assessed as phosphorylated Tau Thr212 residue level at 10 uM incubated for 6 hrs by western blot analysis relative to control
Type: cell-based
Details: not given

For `CCCNC1=N/C(=C\c2ccc3c(c2)OCO3)C(=O)N1CCC`, the inhibition was -1.5%.

Tested on: HT-22
Test: Neuroprotective activity against glutamate-induced cell death in mouse HT-22 cells treated for 24 hrs by MTS assay
Type: functional, cell-based
Details: HT-22, 24 h

First: O=C1NC(Nc2ccc(O)cc2)=N/C1=C\c1ccc2c(c1)OCO2
Second: CCCCCCc1ccc(NC2=N/C(=C\c3ccc(O)c(OC)c3)C(=O)N2)cc1
The pEC50 of the first is 1.52 log units lower: 5.05 for the first, 6.57 for the second.

Target: T2, Cannabinoid receptor 1 (Homo sapiens, UniProt P21554)
Test: Antagonist activity at CP-55940-activated CB1 receptor (unknown origin) at 10 uM by beta-arrestin assay relative to control
Type: functional
Parameters: scale not given: the % may be the effect or the level left
Details: not given

T2 sequence (P21554 whole entry): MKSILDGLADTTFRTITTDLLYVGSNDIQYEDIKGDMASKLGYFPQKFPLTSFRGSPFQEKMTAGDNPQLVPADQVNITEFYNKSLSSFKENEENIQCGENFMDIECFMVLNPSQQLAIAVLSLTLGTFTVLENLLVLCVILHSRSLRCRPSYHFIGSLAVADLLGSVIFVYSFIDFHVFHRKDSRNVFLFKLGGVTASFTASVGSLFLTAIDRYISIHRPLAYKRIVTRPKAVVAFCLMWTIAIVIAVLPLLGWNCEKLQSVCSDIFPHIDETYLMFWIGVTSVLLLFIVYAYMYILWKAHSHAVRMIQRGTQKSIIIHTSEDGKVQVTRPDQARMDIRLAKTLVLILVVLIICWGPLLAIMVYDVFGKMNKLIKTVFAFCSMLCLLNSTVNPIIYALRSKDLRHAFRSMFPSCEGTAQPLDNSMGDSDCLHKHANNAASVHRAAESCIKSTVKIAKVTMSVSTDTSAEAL

Going from `NC1=N/C(=C\c2ccc3c(c2)OCO3)C(=O)N1` to `O=C1NC(Nc2ccc(O)cc2)=N/C1=C\c1ccc2c(c1)OCO2`, the Activity falls from -2.2% to -25.5%.

Work on `CCCNC1=N/C(=C\c2ccc3c(c2)OCO3)C(=O)N1CCC` yielded an Activity of -13.4%.

Same assay, conditions: filed as antagonist

`CCCCCCc1ccc(NC2=N/C(=C\c3ccc(O)c(OC)c3)C(=O)N2)cc1` showed an Activity of 48.1%.

Target: T1, Dual specificity tyrosine-phosphorylation-regulated kinase 1A
Test: Inhibition of GST-fused human recombinant DYRK1A expressed in Escherichia coli using GRSRSRSRSRSR peptide as substrate incubated for 30 mins in presence of ATP by scintillation counting method
Details: not given

Going from `NC1=N/C(=C\c2ccc3c(c2)OCO3)C(=O)N1` to `O=C1NC(Nc2ccc(O)cc2)=N/C1=C\c1ccc2c(c1)OCO2`, the pIC50 rises from 7.46 to 7.89 (0.43 log units). The second is the more potent here.

`CCCNC1=N/C(=C\c2ccc3c(c2)OCO3)C(=O)N1CCC` and `CCCCCCc1ccc(NC2=N/C(=C\c3ccc(O)c(OC)c3)C(=O)N2)cc1` cannot be ordered by pIC50: less than 5.00 for the first, no more than 5.00 for the second.

Tested on: not listed separately
Test: Neurotoxicity against mouse HT-22 cells assessed as cell survival treated for 24 hrs by MTS assay
Type: toxicity, cell-based
Details: not given

`NC1=N/C(=C\c2ccc3c(c2)OCO3)C(=O)N1` and `O=C1NC(Nc2ccc(O)cc2)=N/C1=C\c1ccc2c(c1)OCO2` cannot be ordered by EC50 at 24 h: greater than 20000 nM for the first, greater than 20000 nM for the second.

In the case of `CCCCCCc1ccc(NC2=N/C(=C\c3ccc(O)c(OC)c3)C(=O)N2)cc1`, the EC50 at 24 h was greater than 20000 nM.

Target: Dual specificity protein kinase CLK3 (Mus musculus, UniProt O35492)
Test: Inhibition of GST-fused mouse recombinant CLK3 expressed in Escherichia coli using GRSRSRSRSRSR peptide as substrate incubated for 30 mins in presence of ATP by scintillation counting method
Details: not given

Sequence of Dual specificity protein kinase CLK3 (O35492 whole entry, the tested form may be a part): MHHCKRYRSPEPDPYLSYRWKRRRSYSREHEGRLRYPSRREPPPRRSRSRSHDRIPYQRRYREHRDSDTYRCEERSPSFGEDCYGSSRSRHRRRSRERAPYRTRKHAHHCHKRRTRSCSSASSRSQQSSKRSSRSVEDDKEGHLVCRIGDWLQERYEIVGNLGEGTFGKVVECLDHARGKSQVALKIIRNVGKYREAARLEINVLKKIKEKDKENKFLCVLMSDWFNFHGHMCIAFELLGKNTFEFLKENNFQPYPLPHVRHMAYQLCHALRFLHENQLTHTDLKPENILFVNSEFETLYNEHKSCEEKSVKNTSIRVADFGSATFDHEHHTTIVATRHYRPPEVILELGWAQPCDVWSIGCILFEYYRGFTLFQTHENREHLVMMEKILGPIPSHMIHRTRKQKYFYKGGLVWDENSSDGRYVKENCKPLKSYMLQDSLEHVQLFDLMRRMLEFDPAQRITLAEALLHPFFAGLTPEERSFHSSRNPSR

First: NC1=N/C(=C\c2ccc3c(c2)OCO3)C(=O)N1
Second: O=C1NC(Nc2ccc(O)cc2)=N/C1=C\c1ccc2c(c1)OCO2
The pIC50 of the first is 0.53 log units lower: 6.02 for the first, 6.55 for the second.

`CCCNC1=N/C(=C\c2ccc3c(c2)OCO3)C(=O)N1CCC` gave a pIC50 of less than 5.00.

Target: Dual specificity protein kinase CLK1 (Mus musculus, UniProt P22518)
Test: Inhibition of GST-fused mouse recombinant CLK1 expressed in Escherichia coli using GRSRSRSRSRSR peptide as substrate incubated for 30 mins in presence of ATP by scintillation counting method
Details: not given

Sequence of Dual specificity protein kinase CLK1 (P22518 whole entry, the tested form may be a part): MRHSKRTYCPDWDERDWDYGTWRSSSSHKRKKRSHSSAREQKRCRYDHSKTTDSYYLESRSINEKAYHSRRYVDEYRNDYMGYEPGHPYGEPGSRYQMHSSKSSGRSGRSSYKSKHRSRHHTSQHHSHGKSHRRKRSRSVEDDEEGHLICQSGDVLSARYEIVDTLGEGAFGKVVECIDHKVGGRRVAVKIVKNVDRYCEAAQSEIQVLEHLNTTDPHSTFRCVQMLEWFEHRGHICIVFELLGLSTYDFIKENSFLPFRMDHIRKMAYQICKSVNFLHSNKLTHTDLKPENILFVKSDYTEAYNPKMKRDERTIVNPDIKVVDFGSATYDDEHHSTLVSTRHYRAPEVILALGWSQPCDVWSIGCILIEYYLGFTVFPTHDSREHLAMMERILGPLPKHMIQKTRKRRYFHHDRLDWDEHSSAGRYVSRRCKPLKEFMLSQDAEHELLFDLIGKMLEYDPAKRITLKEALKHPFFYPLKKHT

Compared with `NC1=N/C(=C\c2ccc3c(c2)OCO3)C(=O)N1`, `O=C1NC(Nc2ccc(O)cc2)=N/C1=C\c1ccc2c(c1)OCO2` is 0.27 log units higher in pIC50: 7.39 for the first, 7.66 for the second.

First: CCCNC1=N/C(=C\c2ccc3c(c2)OCO3)C(=O)N1CCC
Second: CCCCCCc1ccc(NC2=N/C(=C\c3ccc(O)c(OC)c3)C(=O)N2)cc1
The pIC50 of the first is higher: 5.52 for the first, less than 5.00 for the second. The first is the more potent here.

Target: Dual specificity protein kinase CLK4 (Mus musculus, UniProt O35493)
Test: Inhibition of GST-fused mouse recombinant CLK4 expressed in Escherichia coli using GRSRSRSRSRSR peptide as substrate incubated for 30 mins in presence of ATP by scintillation counting method
Details: not given

Sequence of Dual specificity protein kinase CLK4 (O35493 whole entry, the tested form may be a part): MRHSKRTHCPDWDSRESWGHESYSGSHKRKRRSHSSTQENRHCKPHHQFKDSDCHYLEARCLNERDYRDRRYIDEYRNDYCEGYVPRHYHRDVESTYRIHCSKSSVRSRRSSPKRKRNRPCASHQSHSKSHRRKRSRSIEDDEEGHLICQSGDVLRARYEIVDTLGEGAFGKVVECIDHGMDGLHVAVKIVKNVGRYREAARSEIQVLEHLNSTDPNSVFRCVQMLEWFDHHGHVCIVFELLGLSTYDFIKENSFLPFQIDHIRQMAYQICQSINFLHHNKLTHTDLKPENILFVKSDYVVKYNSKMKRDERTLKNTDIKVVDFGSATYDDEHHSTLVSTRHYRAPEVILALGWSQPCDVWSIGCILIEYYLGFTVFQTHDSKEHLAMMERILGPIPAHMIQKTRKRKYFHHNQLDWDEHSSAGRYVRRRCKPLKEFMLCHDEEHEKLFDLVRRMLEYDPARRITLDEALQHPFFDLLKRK

Compared with `NC1=N/C(=C\c2ccc3c(c2)OCO3)C(=O)N1`, `O=C1NC(Nc2ccc(O)cc2)=N/C1=C\c1ccc2c(c1)OCO2` is 0.31 log units higher in pIC50: 7.43 for the first, 7.74 for the second.

First: CCCNC1=N/C(=C\c2ccc3c(c2)OCO3)C(=O)N1CCC
Second: CCCCCCc1ccc(NC2=N/C(=C\c3ccc(O)c(OC)c3)C(=O)N2)cc1
The pIC50 of the first is higher: 5.64 for the first, less than 5.00 for the second. The first is the more potent here.

Tested on: not listed separately
Test: Neurotoxicity against mouse HT-22 cells assessed as cell survival at 20 uM treated for 24 hrs by MTS assay
Type: toxicity, cell-based
Details: ht-22, 24 h

With `CCCNC1=N/C(=C\c2ccc3c(c2)OCO3)C(=O)N1CCC` the Activity was “Non-Toxic”.

Target: Glycogen synthase kinase-3 (Sus scrofa, UniProt B2LUN4+I6LNT8)
Test: Inhibition of porcine brain GSK-3alpha/beta using YRRAAVPPSPSLSRHSSPHQpSEDEEE as substrate incubated for 30 mins in presence of ATP by scintillation counting method
Type: tissue-based
Details: not given

First: NC1=N/C(=C\c2ccc3c(c2)OCO3)C(=O)N1
Second: O=C1NC(Nc2ccc(O)cc2)=N/C1=C\c1ccc2c(c1)OCO2
The IC50 of the first is 4-fold higher: 2100 nM for the first, 530 nM for the second.

Compound `CCCNC1=N/C(=C\c2ccc3c(c2)OCO3)C(=O)N1CCC` has an IC50 greater than 10000 nM.

Target: Dual specificity protein kinase CLK2 (Mus musculus, UniProt O35491)
Test: Inhibition of mouse recombinant GST-fused CLK2 expressed in Escherichia coli using GRSRSRSRSRSR peptide as substrate incubated for 30 mins in presence of ATP by scintillation counting method
Details: not given

Sequence of Dual specificity protein kinase CLK2 (O35491 whole entry, the tested form may be a part): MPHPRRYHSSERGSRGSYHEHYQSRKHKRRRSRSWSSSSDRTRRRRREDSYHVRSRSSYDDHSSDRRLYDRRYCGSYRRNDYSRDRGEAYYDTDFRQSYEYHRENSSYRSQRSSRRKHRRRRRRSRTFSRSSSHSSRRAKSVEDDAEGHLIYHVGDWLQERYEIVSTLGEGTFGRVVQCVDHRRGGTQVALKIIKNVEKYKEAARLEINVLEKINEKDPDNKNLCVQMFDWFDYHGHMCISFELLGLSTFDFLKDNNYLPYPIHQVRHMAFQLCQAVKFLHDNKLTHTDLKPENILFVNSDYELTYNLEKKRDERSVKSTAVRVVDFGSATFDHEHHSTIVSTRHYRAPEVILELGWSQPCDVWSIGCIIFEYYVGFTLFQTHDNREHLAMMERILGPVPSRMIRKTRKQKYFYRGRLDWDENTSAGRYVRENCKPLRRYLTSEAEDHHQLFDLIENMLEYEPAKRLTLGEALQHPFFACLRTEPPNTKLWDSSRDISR

Compared with `NC1=N/C(=C\c2ccc3c(c2)OCO3)C(=O)N1`, `O=C1NC(Nc2ccc(O)cc2)=N/C1=C\c1ccc2c(c1)OCO2` is 0.34 log units higher in pIC50: 6.74 for the first, 7.08 for the second. The second is the more potent here.

With `CCCNC1=N/C(=C\c2ccc3c(c2)OCO3)C(=O)N1CCC` the pIC50 was no more than 5.00.

Target: T3, Dual specificity tyrosine-phosphorylation-regulated kinase 3 (Homo sapiens, UniProt O43781)
T3 sequence (O43781 whole entry): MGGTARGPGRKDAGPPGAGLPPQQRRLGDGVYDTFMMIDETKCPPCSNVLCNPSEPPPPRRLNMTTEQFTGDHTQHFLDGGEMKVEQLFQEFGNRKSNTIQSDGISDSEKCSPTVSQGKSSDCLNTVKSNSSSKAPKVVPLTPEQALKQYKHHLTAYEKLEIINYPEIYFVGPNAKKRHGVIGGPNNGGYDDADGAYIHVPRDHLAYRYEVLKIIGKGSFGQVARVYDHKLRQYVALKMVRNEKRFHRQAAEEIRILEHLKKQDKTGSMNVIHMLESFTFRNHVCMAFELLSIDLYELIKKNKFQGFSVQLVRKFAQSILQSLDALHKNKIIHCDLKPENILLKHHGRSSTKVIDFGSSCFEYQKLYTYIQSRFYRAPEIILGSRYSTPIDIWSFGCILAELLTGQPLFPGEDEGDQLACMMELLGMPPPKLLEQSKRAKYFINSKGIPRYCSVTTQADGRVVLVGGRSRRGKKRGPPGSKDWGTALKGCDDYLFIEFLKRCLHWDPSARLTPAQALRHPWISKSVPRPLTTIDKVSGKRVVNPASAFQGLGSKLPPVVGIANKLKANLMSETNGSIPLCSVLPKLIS
Test: Inhibition of GST-fused human recombinant DYRK3 expressed in Escherichia coli using GRSRSRSRSRSR peptide as substrate incubated for 30 mins in presence of ATP by scintillation counting method
Details: not given

First: NC1=N/C(=C\c2ccc3c(c2)OCO3)C(=O)N1
Second: O=C1NC(Nc2ccc(O)cc2)=N/C1=C\c1ccc2c(c1)OCO2
The pIC50 of the first is 0.23 log units lower: 6.62 for the first, 6.85 for the second. The second is the more potent here.

`CCCNC1=N/C(=C\c2ccc3c(c2)OCO3)C(=O)N1CCC` and `CCCCCCc1ccc(NC2=N/C(=C\c3ccc(O)c(OC)c3)C(=O)N2)cc1` cannot be ordered by pIC50: less than 5.00 for the first, less than 5.00 for the second.

Target: Casein kinase 2 (Homo sapiens, UniProt P67870+P68400+P19784+Q8NEV1)
Test: Inhibition of human recombinant CK2 using RRRDDDSDDD peptide as substrate incubated for 30 mins in presence of ATP by scintillation counting method
Type: protein assay
Details: not given

Compared with `NC1=N/C(=C\c2ccc3c(c2)OCO3)C(=O)N1`, `O=C1NC(Nc2ccc(O)cc2)=N/C1=C\c1ccc2c(c1)OCO2` is 6.6-fold lower in IC50: 930 nM for the first, 140 nM for the second.

Tested on: U2OS
Test: Induction of PI3K/mTor-dependent autophagy in human U2OS cells assessed as number of LC3 foci per cell at 10 uM measured after 4 hrs
Type: cell-based
Details: filed as activator

Compared with `NC1=N/C(=C\c2ccc3c(c2)OCO3)C(=O)N1`, `O=C1NC(Nc2ccc(O)cc2)=N/C1=C\c1ccc2c(c1)OCO2` is higher in Activity: 5 for the first, 12 for the second.

Going from `CCCNC1=N/C(=C\c2ccc3c(c2)OCO3)C(=O)N1CCC` to `CCCCCCc1ccc(NC2=N/C(=C\c3ccc(O)c(OC)c3)C(=O)N2)cc1`, the Activity rises from 5 to 7.6.

Tested on: HT-22
Test: Modulation of CLK1 pre-mRNA splicing in mouse HT-22 cells assessed as inclusion of CLK1 exon 4 by measuring change in threshold cycle at 10 uM measured after 4 hrs by real time PCR analysis
Type: cell-based
Details: filed as modulator

Compared with `NC1=N/C(=C\c2ccc3c(c2)OCO3)C(=O)N1`, `O=C1NC(Nc2ccc(O)cc2)=N/C1=C\c1ccc2c(c1)OCO2` is higher in deltaCT: 3.02 for the first, 7.91 for the second.

`CCCNC1=N/C(=C\c2ccc3c(c2)OCO3)C(=O)N1CCC` gave a deltaCT of -0.32.

Target: Serine/threonine-protein kinase pim-1 (Homo sapiens, UniProt P11309)
Test: Inhibition of human recombinant Pim1 expressed in Escherichia coli using histone H1 as substrate incubated for 30 mins in presence of ATP by scintillation counting method
Details: not given

Sequence of Serine/threonine-protein kinase pim-1 (P11309 whole entry): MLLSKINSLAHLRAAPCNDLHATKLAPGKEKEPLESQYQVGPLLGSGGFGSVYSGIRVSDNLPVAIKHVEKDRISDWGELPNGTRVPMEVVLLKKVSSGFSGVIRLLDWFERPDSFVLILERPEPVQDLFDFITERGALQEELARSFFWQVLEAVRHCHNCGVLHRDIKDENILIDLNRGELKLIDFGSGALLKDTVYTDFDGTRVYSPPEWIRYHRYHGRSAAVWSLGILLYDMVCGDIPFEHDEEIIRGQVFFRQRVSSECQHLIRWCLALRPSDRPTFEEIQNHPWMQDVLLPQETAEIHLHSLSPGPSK

Compared with `NC1=N/C(=C\c2ccc3c(c2)OCO3)C(=O)N1`, `O=C1NC(Nc2ccc(O)cc2)=N/C1=C\c1ccc2c(c1)OCO2` is 0.53 log units lower in pIC50: 6.49 for the first, 5.96 for the second. The first is the more potent here.

Work on `CCCCCCc1ccc(NC2=N/C(=C\c3ccc(O)c(OC)c3)C(=O)N2)cc1` yielded a pIC50 of less than 5.00.

Target: T2, Cannabinoid receptor 1
Test: Antagonist activity at CP-55940-activated CB1 receptor (unknown origin) by beta-arrestin assay
Type: functional
Details: not given

Compound `CCCCCCc1ccc(NC2=N/C(=C\c3ccc(O)c(OC)c3)C(=O)N2)cc1` has a pIC50 of 5.70.

Target: T4, Dual specificity tyrosine-phosphorylation-regulated kinase 2 (Homo sapiens, UniProt Q92630)
T4 sequence (Q92630 whole entry): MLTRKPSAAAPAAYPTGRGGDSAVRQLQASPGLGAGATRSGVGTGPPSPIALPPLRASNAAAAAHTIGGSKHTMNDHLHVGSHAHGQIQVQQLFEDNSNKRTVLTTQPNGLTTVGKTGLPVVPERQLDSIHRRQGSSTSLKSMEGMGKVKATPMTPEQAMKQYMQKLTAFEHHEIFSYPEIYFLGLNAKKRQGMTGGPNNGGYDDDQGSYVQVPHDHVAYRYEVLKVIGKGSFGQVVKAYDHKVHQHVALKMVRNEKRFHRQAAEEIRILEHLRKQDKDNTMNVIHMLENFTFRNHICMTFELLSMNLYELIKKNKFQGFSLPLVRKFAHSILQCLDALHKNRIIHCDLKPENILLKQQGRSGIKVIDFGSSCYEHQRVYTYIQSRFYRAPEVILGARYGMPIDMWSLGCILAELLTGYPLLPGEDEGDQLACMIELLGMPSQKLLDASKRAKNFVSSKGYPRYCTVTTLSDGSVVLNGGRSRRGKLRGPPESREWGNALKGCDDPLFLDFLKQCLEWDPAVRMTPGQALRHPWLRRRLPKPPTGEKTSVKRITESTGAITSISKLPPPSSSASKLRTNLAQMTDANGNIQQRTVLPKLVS
Test: Inhibition of GST-fused human recombinant DYRK2 expressed in Escherichia coli using GRSRSRSRSRSR peptide as substrate incubated for 30 mins in presence of ATP by scintillation counting method
Details: not given

First: NC1=N/C(=C\c2ccc3c(c2)OCO3)C(=O)N1
Second: O=C1NC(Nc2ccc(O)cc2)=N/C1=C\c1ccc2c(c1)OCO2
The pIC50 of the first is 0.47 log units lower: 7.49 for the first, 7.96 for the second.

`CCCNC1=N/C(=C\c2ccc3c(c2)OCO3)C(=O)N1CCC` and `CCCCCCc1ccc(NC2=N/C(=C\c3ccc(O)c(OC)c3)C(=O)N2)cc1` cannot be ordered by pIC50: less than 5.00 for the first, no more than 5.00 for the second.
